ChEMBL document CHEMBL1255414, “Combination of V106I and V179D polymorphic mutations in human immunodeficiency virus type 1 reverse transcriptase confers resistance to efavirenz and nevirapine but not etravirine” (Antimicrob Agents Chemother, 2010)

Assays:
[1] = tested on: Human immunodeficiency virus 1; assay: Antiviral activity against wild type HIV1 infected in MAGIC-5 cells using 5-bromo4-chloro-3-indolyl-beta-D-galactopyranoside staining based light microscopy; format: functional, organism-based; conditions: Human immunodeficiency virus 1, MAGIC-5
[2] = tested on: Human immunodeficiency virus 1; assay: Antiviral activity against recombinant HIV1 harboring reverse transcriptase V106A mutant clone infected in MAGIC-5 cells using 5-bromo4-chloro-3-indolyl-beta-D-galactopyranoside staining based light microscopy; format: functional, organism-based; conditions: Human immunodeficiency virus 1, MAGIC-5
[3] = tested on: Human immunodeficiency virus 1; assay: Antiviral activity against recombinant HIV1 harboring reverse transcriptase V106I mutant clone infected in MAGIC-5 cells using 5-bromo4-chloro-3-indolyl-beta-D-galactopyranoside staining based light microscopy; format: functional, organism-based; conditions: Human immunodeficiency virus 1, MAGIC-5
[4] = tested on: Human immunodeficiency virus 1; assay: Antiviral activity against recombinant HIV1 harboring reverse transcriptase V179D mutant clone infected in MAGIC-5 cells using 5-bromo4-chloro-3-indolyl-beta-D-galactopyranoside staining based light microscopy; format: functional, organism-based; conditions: Human immunodeficiency virus 1, MAGIC-5
[5] = tested on: Human immunodeficiency virus 1; assay: Antiviral activity against recombinant HIV1 harboring reverse transcriptase V106A/V179D mutant clone infected in MAGIC-5 cells using 5-bromo4-chloro-3-indolyl-beta-D-galactopyranoside staining based light microscopy; format: functional, organism-based; conditions: Human immunodeficiency virus 1, MAGIC-5
[6] = tested on: Human immunodeficiency virus 1; assay: Antiviral activity against recombinant HIV1 harboring reverse transcriptase V106I/V179D mutant clone infected in MAGIC-5 cells using 5-bromo4-chloro-3-indolyl-beta-D-galactopyranoside staining based light microscopy; format: functional, organism-based; conditions: Human immunodeficiency virus 1, MAGIC-5
[7] = tested on: Human immunodeficiency virus 1; assay: Resistance index, ratio of EC50 for recombinant HIV1 harboring reverse transcriptase V106A mutant clone to EC50 for wild type HIV1; format: functional
[8] = tested on: Human immunodeficiency virus 1; assay: Resistance index, ratio of EC50 for recombinant HIV1 harboring reverse transcriptase V179D mutant clone to EC50 for wild type HIV1; format: functional
[9] = tested on: Human immunodeficiency virus 1; assay: Resistance index, ratio of EC50 for recombinant HIV1 harboring reverse transcriptase V106A/V179D mutant clone to EC50 for wild type HIV1; format: functional
[10] = tested on: Human immunodeficiency virus 1; assay: Resistance index, ratio of EC50 for recombinant HIV1 harboring reverse transcriptase V106I/V179D mutant clone to EC50 for wild type HIV1; format: functional
[11] = tested on: Human immunodeficiency virus 1; assay: Resistance index, ratio of EC50 for recombinant HIV1 harboring reverse transcriptase V106I mutant clone to EC50 for wild type HIV1; format: functional

SMILES | EC50 [1] | EC50 [2] | EC50 [3] | EC50 [4] | EC50 [5] | EC50 [6] | Ratio EC50 [7] | Ratio EC50 [8] | Ratio EC50 [9] | Ratio EC50 [10] | Ratio EC50 [11]
Cc1cc(C#N)cc(C)c1Oc1nc(Nc2ccc(C#N)cc2)nc(N)c1Br [ETRAVIRINE] | 1.2 nM | 0.5 nM | 1.5 nM | 1.9 nM | 1.4 nM | 2.4 nM | 0.4 | 1.6 | 1.2 | 2 | 1.3
Cc1ccnc2c1NC(=O)c1cccnc1N2C1CC1 [NEVIRAPINE] | 50 nM | 3430 nM | 20 nM | 130 nM | 4530 nM | 370 nM | 69 | 2.6 | 91 | 7 | 0.4
O=C1Nc2ccc(Cl)cc2[C@@](C#CC2CC2)(C(F)(F)F)O1 [EFAVIRENZ] |  | 3 nM | 3 nM | 4 nM | 13 nM | 29 nM |  |  |  |  | 
